# Experimental data taken from BindingDB's records for PubMed 8102785 (University of Pennsylvania, 1993).
# Where a SMILES comes first, the peptide text is derived from it. Bridges are numbered along the chain shown (N, C = ends). [ ]: non-standard residue; d: D form. The star is where a group is joined. NH(1-naphthylmethyl) = c1ccc2c(CN*)cccc2c1; Phe(4-Cl) = N[C@@H](Cc1ccc(Cl)cc1)C(=O)O; 2Nal = N[C@@H](Cc1ccc2ccccc2c1)C(=O)O; 1Nal = N[CH](Cc1cccc2ccccc12)C(=O)O; dNMeF = CN[C@H](Cc1ccccc1)C(=O)O; Thr(ol) = C[CH](O)[CH](N)CO; dNMeA = CN[C@H](C)C(=O)O; Aoc = NCCCCCCCC(=O)O; Ahp = NCCCCCCC(=O)O; Ahx = NCCCCCC(=O)O; Bn = c1ccc(C*)cc1
# Biological target: Somatostatin receptor type 4 (Rattus norvegicus, UniProt P30937)
# Sequence (P30937 whole entry): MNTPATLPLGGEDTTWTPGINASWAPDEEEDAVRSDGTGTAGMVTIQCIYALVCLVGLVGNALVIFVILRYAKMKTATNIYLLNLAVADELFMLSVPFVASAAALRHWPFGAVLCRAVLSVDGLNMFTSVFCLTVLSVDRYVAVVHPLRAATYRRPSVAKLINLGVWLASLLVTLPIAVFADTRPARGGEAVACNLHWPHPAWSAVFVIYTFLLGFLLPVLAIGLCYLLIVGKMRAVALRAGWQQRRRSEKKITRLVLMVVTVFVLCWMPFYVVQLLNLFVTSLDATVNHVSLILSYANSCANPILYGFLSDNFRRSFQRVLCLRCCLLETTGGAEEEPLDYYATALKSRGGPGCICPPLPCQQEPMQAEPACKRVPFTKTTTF
row,Ki,Compound
1,0.005 nM,C[C@@H](O)[C@@H]1NC(=O)[C@H](CCCCN)NC(=O)[C@@H](Cc2c[nH]c3ccccc23)NC(=O)[C@H](Cc2c[nH]c3ccccc23)NC(=O)[C@H](Cc2ccccc2)NC(=O)CCCCCCNC(=O)[C@H](Cc2ccccc2)NC1=O [L-362855] (cyclo([Ahp]FW[dW]KTF))
2,0.47 nM,C[C@@H](O)[C@@H]1NC(=O)[C@H](CCCCN)NC(=O)[C@@H](Cc2c[nH]c3ccccc23)NC(=O)[C@H](Cc2ccccc2)NC(=O)[C@H](Cc2ccc(Cl)cc2)NC(=O)CCCCCCNC(=O)[C@H](Cc2ccccc2)NC1=O [L-362862] (cyclo([Ahp][Phe(4-Cl)]F[dW]KTF))
3,405 nM,C[C@H](O)[C@H]1NC(=O)[C@H](CCCCN)NC(=O)[C@@H](Cc2c[nH]c3ccccc23)NC(=O)[C@@H](Cc2ccccc2)NC(=O)[C@@H](C)N(C)C(=O)[C@@H](Cc2ccccc2)N(C)C1=O [N-Methylcyclo(D-Ala-D-Phe-D-Trp-L-Lys-D-Thr-N-methyl-D-Phe-)] (cyclo(K[dT][dNMeF][dNMeA][dF][dW]))
4,188 nM,NCCCC[C@@H]1NC(=O)[C@@H](Cc2c[nH]c3ccccc23)NC(=O)[C@H](Cc2ccccc2)NC(=O)CCCCCCNC(=O)[C@H](COCc2ccccc2)NC1=O [c[Aha-Phe-D-Trp-Lys-Ser(Bzl)]] (cyclo([Ahp]F[dW]KS(Bn)))
5,51 nM,C[C@@H](Oc1ccccc1)[C@@H]1NC(=O)[C@H](CCCCN)NC(=O)[C@@H](Cc2c[nH]c3ccccc23)NC(=O)[C@H](Cc2ccccc2)NCCCCCCNC1=O [c[Aha-Phe-D-Trp-Lys-Thr(Bzl)]]
6,1000 nM,C[C@@H](O)[C@@H]1NC(=O)[C@H](CCCCN)NC(=O)[C@@H](Cc2c[nH]c3ccccc23)NC(=O)[C@H](Cc2ccccc2)NC(=O)CCCCCCNC1=O [c[Aha-Phe-D-Trp-Lys-Thr]] (cyclo([Ahp]F[dW]KT))
7,34 nM,C[C@@H](OCc1ccccc1)[C@@H]1NC(=O)[C@H](CCCCN)NC(=O)[C@@H](Cc2c[nH]c3ccccc23)NC(=O)[C@H](Cc2ccccc2)NC(=O)CCCCCNC1=O [c[Ahx-Phe-D-Trp-Lys-Thr(Bzl)]] (cyclo([Ahx]F[dW]KT(Bn)))
8,50 nM,C[C@@H](OCc1ccccc1)[C@@H]1NC(=O)[C@H](CCCCN)NC(=O)[C@@H](Cc2c[nH]c3ccccc23)NC(=O)[C@H](Cc2ccccc2)NC(=O)CCCCCCCNC1=O [c[Aoc-Phe-D-Trp-Lys-Thr(Bzl)]] (cyclo([Aoc]F[dW]KT(Bn)))

# Continued, compound first:
row,Compound,Ki
1,CC[C@@H]1NC(=O)[C@H](CCCCN)NC(=O)[C@@H](Cc2c[nH]c3ccccc23)NC(=O)[C@H](Cc2ccc(O)cc2)NC(=O)[C@@H](NC(=O)[C@H](N)Cc2ccccc2)CSSC[C@@H](C(=O)N[C@H](C(N)=O)[C@@H](C)O)NC1=O [D-Phe-L-Cys(1)-L-Tyr-D-Trp-L-Lys-L-Abu-L-Cys(1)-L-Thr-NH2],0.18 nM
2,CC(C)[C@H](NC(=O)[C@H](CCCCN)NC(=O)[C@@H](Cc1c[nH]c2ccccc12)NC(=O)[C@H](Cc1ccc(O)cc1)NC(=O)[C@H](Cc1ccccc1)NC(=O)[C@H](N)Cc1ccccc1)C(=O)N[C@@H](Cc1ccccc1)C(=O)N[C@H](Cc1ccccc1)C(N)=O [D-Phe-Phe-Tyr-D-Trp-Lys-Val-Phe-D-Phe-NH2] (H-[dF]FY[dW]KVF[dF]-NH2),3.3 nM
3,CC(C)C1NC(=O)C(CCCCN)NC(=O)C(Cc2c[nH]c3ccccc23)NC(=O)C(Cc2ccc(O)cc2)NC(=O)C(NC(=O)C(N)Cc2cccc3ccccc23)CSSCC(C(=O)NC(CO)C(C)O)NC1=O (stereo not given) [DC23-60] (H-[1Nal]CYWKVC[Thr(ol)]; disulfide 2-7; configuration not given here),1.5 nM
4,"CC(C)[C@H](NC(=O)[C@H](CCCCN)NC(=O)[C@@H](Cc1c[nH]c2ccccc12)NC(=O)[C@H](Cc1ccc(O)cc1)NC(=O)[C@H](C)NC(=O)[C@H](N)Cc1ccccc1)C(=O)N[C@@H](C)C(=O)N[C@@H](Cc1ccc2ccccc2c1)C(N)=O [L-Alaninamide,D-phenylalanyl-L-alanyl-L-tyrosyl-D-tryptophyl-L-lysyl-L-valyl-L-alanyl-3-(2-naphthalenyl)-(9CI)] (H-[dF]AY[dW]KVA[2Nal]-NH2)",29 nM
5,NCCCCC1NC(=O)C(Cc2c[nH]c3ccccc23)NC(=O)C(Cc2ccc(O)cc2)NC(=O)C(NC(=O)C(N)Cc2ccccc2)CSSCC(C(=O)NCc2cccc3ccccc23)NC(=O)C(CO)NC1=O (stereo not given) [NC4-28B] (H-FCYWKSC-{NH(1-naphthylmethyl)}; disulfide 2-7; configuration not given here),1 nM
6,CC(O)[C@@H]1NC(=O)[C@@H](CCCCN)NC(=O)[C@H](Cc2c[nH]c3ccccc23)NC(=O)[C@@H](Cc2ccccc2)NC(=O)[C@H](Cc2ccccc2)NC(=O)[C@@H](CC(N)=O)NC(=O)[C@H](CCCCN)NC(=O)[C@@H](NC(=O)CNC(=O)[C@H](C)N)CSSC[C@H](C(=O)O)NC(=O)[C@@H](CO)NC(=O)[C@H]([C@@H](C)O)NC(=O)[C@@H](Cc2ccccc2)NC1=O (stereo partly drawn) [SRIF-D-Trp8],0.002 nM
7,CSCC[C@H](NC(=O)[C@H](C)NC(=O)[C@@H]1CCCN1C(=O)[C@H](CC(N)=O)NC(=O)[C@H](CO)NC(=O)[C@H](CC(N)=O)NC(=O)[C@H](C)NC(=O)[C@@H](N)CO)C(=O)N[C@@H](C)C(=O)N1CCC[C@H]1C(=O)N[C@@H](CCCNC(=N)N)C(=O)N[C@@H](CCC(=O)O)C(=O)N[C@@H](CCCNC(=N)N)C(=O)N[C@@H](CCCCN)C(=O)N[C@@H](C)C(=O)NCC(=O)N[C@H]1CSSC[C@@H](C(=O)O)NC(=O)[C@H](CO)NC(=O)[C@H]([C@@H](C)O)NC(=O)[C@H](Cc2ccccc2)NC(=O)[C@H]([C@@H](C)O)NC(=O)[C@H](CCCCN)NC(=O)[C@H](Cc2c[nH]c3ccccc23)NC(=O)[C@H](Cc2ccccc2)NC(=O)[C@H](Cc2ccccc2)NC(=O)[C@H](CC(N)=O)NC(=O)[C@H](CCCCN)NC1=O [somatostatin-28],0.23 nM
